Measurements published in patent US20240423207A1, “PICOLINAMIDE COMPOUNDS WITH FUNGICIDAL ACTIVITY” (CORTEVA AGRISCIENCE LLC, priority 2014, published 2024).
Like-named read-outs stand apart in the source and are kept apart here.

Experiments:
Assay type in all cases: in vivo
Alternaria solani = test: Tomato Early Blight (ALTESO) fungicidal activity on tomato plants; details: 24 h, 1 Day Protectant, read-out: ALTESO 1 DP disease control
Method: Technical grades of materials were dissolved in acetone, which were then mixed with nine volumes of water (H2O) containing 110 ppm Triton X-100. The fungicide solutions were applied onto wheat seedlings using an automated booth sprayer to run-off. All sprayed plants were allowed to air dry prior to further handling. All fungicides were evaluated using the aforementioned method for their activity vs. all target diseases, unless stated otherwise. Wheat leaf blotch and brown rust activity were also evaluated using track spray applications, in which case the fungicides were formulated as EC formulations, containing 0.1% Trycol 5941 in the spray solutions. Wheat plants (variety Yuma) were grown from seed in a greenhouse in 50% mineral soil/50% soil-less Metro mix until the first leaf was fully emerged, with 7-10 seedlings per pot. These plants were inoculated with an aqueous spore suspension of Septoria tritici either prior to or after fungicide treatments. After inoculation the plants were kept in 100% relative humidity (one day in a dark dew chamber followed by two to three days in a lighted dew chamber at 20° C.) to permit spores to germinate and infect the leaf. The plants were then transferred to a greenhouse set at 20° C. for disease to develop. When disease symptoms were fully expressed on the 1st leaves of untreated plants, infection levels were assessed on a scale of 0 to 100 percent disease severity. Percent disease control was calculated using the ratio of disease severity on treated plants relative to untreated plants. Example I: Evaluation of Fungicidal Activity: Tomato Early Blight (Alternaria solani; Bayer code […]) Tomato plants (variety Outdoor Girl) were propagated in soil-less Metro mix, with each pot having one plant, and used when 12 to 14 days old. Test plants were inoculated with an aqueous spore suspension of Alternaria solani 24 h after fungicide treatments. After inoculation the plants were kept in 100% relative humidity (one day in a dark dew chamber followed by two to three days in a lighted dew chamber at 20° C.) to permit spores to germinate and infect the leaf. The plants were then transferred to a growth room at 22° C. for disease to develop. Fungicide formulation, application and disease assessment on the sprayed leaves followed the procedures as described in the Example A.

Venturia inaequalis = test: Apple Scab (VENTIN) fungicidal activity on apple seedlings; details: 24 h, 1 Day Protectant, read-out: VENTIN 1 DP disease control
Method: Technical grades of materials were dissolved in acetone, which were then mixed with nine volumes of water (H2O) containing 110 ppm Triton X-100. The fungicide solutions were applied onto wheat seedlings using an automated booth sprayer to run-off. All sprayed plants were allowed to air dry prior to further handling. All fungicides were evaluated using the aforementioned method for their activity vs. all target diseases, unless stated otherwise. Wheat leaf blotch and brown rust activity were also evaluated using track spray applications, in which case the fungicides were formulated as EC formulations, containing 0.1% Trycol 5941 in the spray solutions. Wheat plants (variety Yuma) were grown from seed in a greenhouse in 50% mineral soil/50% soil-less Metro mix until the first leaf was fully emerged, with 7-10 seedlings per pot. These plants were inoculated with an aqueous spore suspension of Septoria tritici either prior to or after fungicide treatments. After inoculation the plants were kept in 100% relative humidity (one day in a dark dew chamber followed by two to three days in a lighted dew chamber at 20° C.) to permit spores to germinate and infect the leaf. The plants were then transferred to a greenhouse set at 20° C. for disease to develop. When disease symptoms were fully expressed on the 1st leaves of untreated plants, infection levels were assessed on a scale of 0 to 100 percent disease severity. Percent disease control was calculated using the ratio of disease severity on treated plants relative to untreated plants. Example D: Evaluation of Fungicidal Activity: Apple Scab (Venturia inaequalis; Bayer code […]) Apple seedlings (variety McIntosh) were grown in soil-less Metro mix, with one plant per pot. Seedlings with two expanding young leaves at the top (older leaves at bottom of the plants were trimmed) were used in the test. Plants were inoculated with a spore suspension of Venturia inaequalis 24 h after fungicide treatment and kept in a 22° C. dew chamber with 100% relative humidity for 48 h, and then moved to a greenhouse set at 20° C. for disease to develop. Fungicide formulation, application and disease assessment on the sprayed leaves followed the procedures as described in the Example A.

[1] = test system: Puccinia triticina; Synonym: Puccinia recondita f sp. tritici; test: Wheat Brown Rust (PUCCRT) fungicidal activity on wheat seedlings; details: Low Volume, 121.5 g/H
How it was run: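 Yuma wheat seedlings (first leaf emerged) were sprayed to run-off with compound in acetone/water 1:9 (110 ppm Triton X-100), and P. triticina spores were inoculated before or after treatment. Plants were kept overnight in a 22 °C dark dew room at 100% RH, then moved to a 24 °C greenhouse; % control was based on first-leaf severity (0–100%) versus untreated plants.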

[2] = 24 h, 1 Day Protectant, read-out: PUCCRT 1DP disease control
[3] = 72 h, 3 Day Curative, read-out: PUCCRT 3DC disease control

**Q.** Which results are given for `COc1ccnc(C(=O)N[C@@H](C)C(=O)O[C@@H](C)C(c2ccccc2)c2ccccc2)c1OC(=O)C(C)C` [Cmpd 140]?
**A.** pest or weed control at 100 ppm (Alternaria solani): > 80%; pest or weed control at 100 ppm (Venturia inaequalis): > 80%; pest or weed control at 121.5 g/ha [1, 2]: > 80%; pest or weed control at 121.5 g/ha [1, 3]: < 80%

**Q.** Which pest or weed control at 100 ppm (Alternaria solani) does the source give for `COc1ccnc(C(=O)N[C@@H](C)C(=O)O[C@@H](C)C(c2ccc(F)cc2)c2ccc(F)cc2)c1OC(C)=O` [Cmpd 145] here?
**A.** > 80%

**Q.** What about the pest or weed control at 100 ppm (Venturia inaequalis) of the same compound?
**A.** > 80%

**Q.** What about the pest or weed control at 121.5 g/ha [1, 2] of the same compound?
**A.** > 80%

**Q.** And the pest or weed control at 121.5 g/ha [1, 3]?
**A.** > 80%

**Q.** What does the source list for `COc1ccnc(C(=O)N[C@@H](C)C(=O)O[C@@H](C)C(c2ccccc2)c2ccccc2)c1OCOC(=O)C(C)C` [Cmpd 142, (S)-(S)-1,1-diphenylpropan-2-yl 2-(3-((isobutyryloxy)methoxy)-4-methoxypicolinamido)propanoate]?
**A.** pest or weed control at 100 ppm (Alternaria solani): > 80%; pest or weed control at 100 ppm (Venturia inaequalis): > 80%; pest or weed control at 121.5 g/ha [1, 2]: > 80%; pest or weed control at 121.5 g/ha [1, 3]: > 80%

**Q.** What does the source list for `COc1ccnc(C(=O)N[C@@H](C)C(=O)O[C@@H](C)C(c2ccccc2)c2ccccc2)c1OCOC(C)=O` [Cmpd 141, (S)-(S)-1,1-diphenylpropan-2-yl 2-(3-(acetoxymethoxy)-4-methoxypicolinamido)propanoate]?
**A.** pest or weed control at 100 ppm (Alternaria solani): < 80%; pest or weed control at 100 ppm (Venturia inaequalis): > 80%; pest or weed control at 121.5 g/ha [1, 2]: > 80%; pest or weed control at 121.5 g/ha [1, 3]: > 80%

**Q.** For `COc1ccnc(C(=O)N[C@@H](C)C(=O)O[C@@H](C)C(c2ccc(F)cc2)c2ccc(F)cc2)c1OCOC(C)=O` [Cmpd 146], which pest or weed control at 100 ppm (Alternaria solani) is on record?
**A.** > 80%

**Q.** What about the pest or weed control at 100 ppm (Venturia inaequalis) of the same compound?
**A.** > 80%

**Q.** And the pest or weed control at 121.5 g/ha [1, 2]?
**A.** > 80%

**Q.** And the pest or weed control at 121.5 g/ha [1, 3]?
**A.** > 80%

**Q.** What does the source list for `COc1ccnc(C(=O)N[C@@H](C)C(=O)O[C@@H](C)C(c2ccc(F)cc2F)c2ccc(F)cc2F)c1OC(C)=O` [Cmpd 150]?
**A.** pest or weed control at 100 ppm (Alternaria solani): > 80%; pest or weed control at 100 ppm (Venturia inaequalis): > 80%; pest or weed control at 121.5 g/ha [1, 2]: > 80%; pest or weed control at 121.5 g/ha [1, 3]: > 80%

**Q.** With `COc1ccnc(C(=O)N[C@@H](C)C(=O)O[C@@H](C)C(c2ccc(Cl)cc2)c2ccc(Cl)cc2)c1OCOC(C)=O` [Cmpd 176] as the compound, how does the pest or weed control at 100 ppm (Alternaria solani) read?
**A.** < 80%

**Q.** What about the pest or weed control at 100 ppm (Venturia inaequalis) of the same compound?
**A.** > 80%

**Q.** And the pest or weed control at 121.5 g/ha [1, 2]?
**A.** > 80%

**Q.** And the pest or weed control at 121.5 g/ha [1, 3]?
**A.** > 80%

**Q.** With `COc1ccnc(C(=O)N[C@@H](C)C(=O)O[C@@H](C)C(c2ccc(F)cc2F)c2ccc(F)cc2F)c1OCOC(C)=O` [Cmpd 148] as the compound, how does the pest or weed control at 100 ppm (Alternaria solani) read?
**A.** < 80%

**Q.** And the pest or weed control at 100 ppm (Venturia inaequalis)?
**A.** > 80%

**Q.** What about the pest or weed control at 121.5 g/ha [1, 2] of the same compound?
**A.** > 80%

**Q.** And the pest or weed control at 121.5 g/ha [1, 3]?
**A.** > 80%

**Q.** Which results are given for `COc1ccnc(C(=O)N[C@@H](C)C(=O)O[C@@H](C)C(c2ccccc2)c2ccccc2)c1OC(C)=O` [Cmpd 139, (S)-(S)-1,1-diphenylpropan-2-yl 2-(3-acetoxy-4-methoxypicolinamido)propanoate]?
**A.** pest or weed control at 100 ppm (Alternaria solani): < 80%; pest or weed control at 100 ppm (Venturia inaequalis): > 80%; pest or weed control at 121.5 g/ha [1, 2]: > 80%; pest or weed control at 121.5 g/ha [1, 3]: > 80%

**Q.** With `COc1ccnc(C(=O)N[C@@H](C)C(=O)O[C@@H](C)C(c2ccc(Cl)cc2)c2ccc(Cl)cc2)c1OC(C)=O` [Cmpd 174] as the compound, how does the pest or weed control at 100 ppm (Alternaria solani) read?
**A.** < 80%

**Q.** And the pest or weed control at 100 ppm (Venturia inaequalis)?
**A.** < 80%

**Q.** What about the pest or weed control at 121.5 g/ha [1, 2] of the same compound?
**A.** > 80%

**Q.** What about the pest or weed control at 121.5 g/ha [1, 3] of the same compound?
**A.** < 80%
